Results taken from patent US20260365670A1, “EGFR INHIBITORS AND USES THEREOF” (DIZAL (JIANGSU) PHARMACEUTICAL CO., LTD., priority 2022, published 2026).
Read-outs that look alike come from different tables or passages of the source.

Tests used:
[1] = molecular target: T1, EGFR wild type (Homo sapiens, UniProt P00533); test: Inhibition of EGFR wild type biochemical enzymatic activity (HTRF); settings: EGFR wild type, 1 mM ATP, 1 h at room temperature, read-out: IC50 @WT
T1 construct: purchased Carna Bio
How it was run: (§1)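 1 mM ATP, 1 μM biotin-TK peptide, 5 mM MgCl2, 1 mM MnCl2, 0.01% CHAPS, 1 mM DTT, 0.5% DMSO; 1 h RT; EDTA stop; HTRF 665/615 nm; IC50 via 4PL.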

[2] = molecular target: T2, EGFR L858R (Homo sapiens, UniProt P00533, L858R); test: Inhibition of EGFR L858R biochemical enzymatic activity (HTRF); settings: 1 mM ATP, 1 h at room temperature, read-out: IC50 @L858R
T2 construct: purchased Carna Bio
How it was run: as §1

[3] = molecular target: T3, EGFR L858R/T790M (Homo sapiens, UniProt P00533, L858R/T790M); test: Inhibition of EGFR L858R/T790M biochemical enzymatic activity (HTRF); settings: EGFR L858R/T790M, 1 mM ATP, 1 h at room temperature, read-out: IC50 @L858R-T790M
T3 construct: purchased Carna Bio
How it was run: as §1

[4] = molecular target: T4, EGFR Exon19Del (Homo sapiens, UniProt P00533, DEL746-750); test: Inhibition of EGFR Exon19Del biochemical enzymatic activity (HTRF); settings: EGFR Exon19Del, 1 mM ATP, 1 h at room temperature, read-out: IC50 @Del19
T4 construct: purchased Carna Bio
How it was run: as §1

[5] = molecular target: T5, EGFR Exon19Del/T790M (Homo sapiens, UniProt P00533, DEL746-750/T790M); test: Inhibition of EGFR Exon19Del/T790M biochemical enzymatic activity (HTRF); settings: EGFR Exon19Del/T790M, 1 mM ATP, 1 h at room temperature, read-out: IC50 @Del19-T790M
T5 construct: purchased Carna Bio
How it was run: as §1

[6] = molecular target: T6, EGFR[T790M/C797S/L858R] (Homo sapiens, UniProt P00533, C797S/L858R/T790M); test: Inhibition of EGFR[T790M/C797S/L858R] biochemical enzymatic activity (HTRF); settings: EGFR[T790M/C797S/L858R], 1 mM ATP, 1 h at room temperature, read-out: IC50 @T790M- C797S - L858R
T6 construct: purchased Carna Bio
How it was run: as §1

[7] = molecular target: T7, EGFR[T790M/C797S/d746-750] (Homo sapiens, UniProt P00533, C797S/DEL746-750/T790M); test: Inhibition of EGFR[T790M/C797S/d746-750] biochemical enzymatic activity (HTRF); settings: EGFR[T790M/C797S/d746-750], 1 mM ATP, 1 h at room temperature, read-out: IC50 @T790M - C797S - Del19
T7 construct: purchased Carna Bio
How it was run: as §1

[8] = molecular target: T8, EGFR (d746-750 C797S) (Homo sapiens, UniProt P00533, C797S/DEL746-750); test: Inhibition of EGFR (d746-750 C797S) biochemical enzymatic activity (HTRF); settings: EGFR (d746-750 C797S), 1 mM ATP, 1 h at room temperature, read-out: IC50 @Del19-C797S
T8 construct: purchased signalchem
How it was run: as §1

[9] = molecular target: T9, EGFR (C797S L858R) (Homo sapiens, UniProt P00533, C797S/L858R); test: Inhibition of EGFR (C797S L858R) biochemical enzymatic activity (HTRF); settings: EGFR (C797S L858R), 1 mM ATP, 1 h at room temperature, read-out: IC50 @L858-C797S
T9 construct: purchased signalchem
How it was run: as §1

[10] = system: Ba/F3 cells expressing EGFR mutations; test: Cell proliferation assay, Ba/F3 cells expressing EGFR mutations (CellTiter-Glo, 72 hours); type: cell-based
How it was run: (§2)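 Ba/F3 cells (5000/well) and PC-9 cells (500/well, RPMI1640 with 10% FBS) were plated overnight and then dosed with a compound concentration series. Viable cells were read at day 0 (G0) and after treatment (G3). GI50 came from curve fits of G0-corrected proliferation relative to DMSO.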

[11] = system: PC-9; test: Cell proliferation assay, PC-9 cells (CellTiter-Glo, 72 hours); type: cell-based; settings: PC9 cells, read-out: GI50 PC9
How it was run: as §2

[12] = BaF3 cells, EGFR DEL19 - C797S, read-out: GI50 DEL19 - C797S/BaF3
[13] = BaF3 cells, EGFR DEL19 - T790-C797S, read-out: GI50 DEL19 - T790-C797S/BaF3
[14] = BaF3 cells, EGFR L858R - C797S, read-out: GI50 L858R - C797S/BaF3
[15] = BaF3 cells, EGFR L858R - T790-C797S, read-out: GI50 L858R - T790-C797S/BaF3
[16] = BaF3 cells, EGFR L858R - T790M, read-out: GI50 L858R - T790M/BaF3
[17] = BaF3 cells, EGFR L858R, read-out: GI50 L858R/BaF3
[18] = EGFR DEL19 - T790M, read-out: GI50 DEL19 - T790M

T6 sequence (P00533 25-1210 T790M/C797S/L858R): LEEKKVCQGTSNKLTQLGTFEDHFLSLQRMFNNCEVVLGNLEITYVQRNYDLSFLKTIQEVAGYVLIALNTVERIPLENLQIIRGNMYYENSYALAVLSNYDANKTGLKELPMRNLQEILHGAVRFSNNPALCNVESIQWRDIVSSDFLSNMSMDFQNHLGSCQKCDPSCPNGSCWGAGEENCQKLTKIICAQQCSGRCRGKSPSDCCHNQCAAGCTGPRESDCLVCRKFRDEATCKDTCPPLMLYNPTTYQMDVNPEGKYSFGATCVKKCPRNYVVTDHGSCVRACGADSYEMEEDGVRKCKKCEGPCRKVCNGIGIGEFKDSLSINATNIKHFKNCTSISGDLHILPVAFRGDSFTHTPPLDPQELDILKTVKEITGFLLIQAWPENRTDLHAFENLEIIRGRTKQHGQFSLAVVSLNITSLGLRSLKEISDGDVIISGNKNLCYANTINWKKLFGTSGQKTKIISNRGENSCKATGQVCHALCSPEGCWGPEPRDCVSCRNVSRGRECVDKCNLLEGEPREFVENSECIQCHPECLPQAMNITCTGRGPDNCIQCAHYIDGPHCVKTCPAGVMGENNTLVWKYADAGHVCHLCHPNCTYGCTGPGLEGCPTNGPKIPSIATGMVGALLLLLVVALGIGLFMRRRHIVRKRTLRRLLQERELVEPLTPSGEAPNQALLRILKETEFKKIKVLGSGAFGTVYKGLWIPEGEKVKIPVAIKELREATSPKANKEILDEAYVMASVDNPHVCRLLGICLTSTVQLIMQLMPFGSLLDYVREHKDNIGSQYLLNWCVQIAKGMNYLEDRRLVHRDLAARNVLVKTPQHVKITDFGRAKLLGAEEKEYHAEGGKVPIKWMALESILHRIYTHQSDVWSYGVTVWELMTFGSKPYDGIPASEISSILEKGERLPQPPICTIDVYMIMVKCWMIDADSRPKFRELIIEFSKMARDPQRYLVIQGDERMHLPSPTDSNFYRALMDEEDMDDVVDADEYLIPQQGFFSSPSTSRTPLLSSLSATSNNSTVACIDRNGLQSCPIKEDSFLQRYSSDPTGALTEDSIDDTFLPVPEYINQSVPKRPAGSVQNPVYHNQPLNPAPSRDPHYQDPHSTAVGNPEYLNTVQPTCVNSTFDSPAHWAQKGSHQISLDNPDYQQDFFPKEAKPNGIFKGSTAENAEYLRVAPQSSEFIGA
T4 sequence (P00533 with tags, fused parts or gaps DEL746-750 limits assumed): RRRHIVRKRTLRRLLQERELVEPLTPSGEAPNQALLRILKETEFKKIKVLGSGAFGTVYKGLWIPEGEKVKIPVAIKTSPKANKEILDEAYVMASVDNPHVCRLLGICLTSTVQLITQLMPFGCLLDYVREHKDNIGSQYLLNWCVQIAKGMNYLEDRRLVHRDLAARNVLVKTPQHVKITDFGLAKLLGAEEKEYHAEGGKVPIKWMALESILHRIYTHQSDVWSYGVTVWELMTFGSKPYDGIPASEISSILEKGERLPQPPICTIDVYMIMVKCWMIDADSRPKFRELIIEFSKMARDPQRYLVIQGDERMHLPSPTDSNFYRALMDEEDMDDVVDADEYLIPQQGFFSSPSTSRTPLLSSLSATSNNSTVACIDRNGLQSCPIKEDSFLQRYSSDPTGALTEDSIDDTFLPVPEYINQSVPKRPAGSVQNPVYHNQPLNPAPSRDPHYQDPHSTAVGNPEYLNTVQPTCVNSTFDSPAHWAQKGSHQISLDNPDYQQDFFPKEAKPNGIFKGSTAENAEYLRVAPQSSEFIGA
T3 sequence (P00533 25-1210 T790M/L858R): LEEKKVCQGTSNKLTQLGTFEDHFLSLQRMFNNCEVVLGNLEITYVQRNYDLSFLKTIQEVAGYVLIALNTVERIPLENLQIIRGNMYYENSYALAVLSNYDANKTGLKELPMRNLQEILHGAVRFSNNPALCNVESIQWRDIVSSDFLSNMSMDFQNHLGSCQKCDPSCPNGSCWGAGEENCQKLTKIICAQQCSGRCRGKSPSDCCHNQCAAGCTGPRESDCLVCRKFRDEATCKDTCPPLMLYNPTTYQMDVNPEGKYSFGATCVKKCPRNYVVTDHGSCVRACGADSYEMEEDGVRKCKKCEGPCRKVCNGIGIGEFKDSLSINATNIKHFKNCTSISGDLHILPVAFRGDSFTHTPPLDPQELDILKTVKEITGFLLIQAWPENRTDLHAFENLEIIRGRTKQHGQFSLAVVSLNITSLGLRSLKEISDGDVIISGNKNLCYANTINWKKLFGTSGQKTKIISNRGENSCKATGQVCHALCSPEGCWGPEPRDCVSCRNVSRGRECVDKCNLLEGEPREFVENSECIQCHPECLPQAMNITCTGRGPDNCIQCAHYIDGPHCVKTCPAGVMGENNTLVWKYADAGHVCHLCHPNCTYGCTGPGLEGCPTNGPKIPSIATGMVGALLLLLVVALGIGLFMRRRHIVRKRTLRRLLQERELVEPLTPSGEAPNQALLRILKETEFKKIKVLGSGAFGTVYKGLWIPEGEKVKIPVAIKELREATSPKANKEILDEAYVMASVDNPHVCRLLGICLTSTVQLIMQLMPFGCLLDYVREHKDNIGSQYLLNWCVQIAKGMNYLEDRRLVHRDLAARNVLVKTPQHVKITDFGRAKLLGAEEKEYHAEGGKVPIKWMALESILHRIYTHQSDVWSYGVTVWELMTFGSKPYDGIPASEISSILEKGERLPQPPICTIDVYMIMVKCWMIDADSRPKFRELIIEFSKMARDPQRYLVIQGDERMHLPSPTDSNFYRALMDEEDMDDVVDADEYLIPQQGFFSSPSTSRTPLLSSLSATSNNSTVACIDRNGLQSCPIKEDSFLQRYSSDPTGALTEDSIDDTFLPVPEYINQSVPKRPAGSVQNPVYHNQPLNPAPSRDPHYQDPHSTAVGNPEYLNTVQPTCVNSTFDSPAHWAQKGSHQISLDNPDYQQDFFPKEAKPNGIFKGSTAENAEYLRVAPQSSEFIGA
T5 sequence (P00533 with tags, fused parts or gaps DEL746-750/T790M limits assumed): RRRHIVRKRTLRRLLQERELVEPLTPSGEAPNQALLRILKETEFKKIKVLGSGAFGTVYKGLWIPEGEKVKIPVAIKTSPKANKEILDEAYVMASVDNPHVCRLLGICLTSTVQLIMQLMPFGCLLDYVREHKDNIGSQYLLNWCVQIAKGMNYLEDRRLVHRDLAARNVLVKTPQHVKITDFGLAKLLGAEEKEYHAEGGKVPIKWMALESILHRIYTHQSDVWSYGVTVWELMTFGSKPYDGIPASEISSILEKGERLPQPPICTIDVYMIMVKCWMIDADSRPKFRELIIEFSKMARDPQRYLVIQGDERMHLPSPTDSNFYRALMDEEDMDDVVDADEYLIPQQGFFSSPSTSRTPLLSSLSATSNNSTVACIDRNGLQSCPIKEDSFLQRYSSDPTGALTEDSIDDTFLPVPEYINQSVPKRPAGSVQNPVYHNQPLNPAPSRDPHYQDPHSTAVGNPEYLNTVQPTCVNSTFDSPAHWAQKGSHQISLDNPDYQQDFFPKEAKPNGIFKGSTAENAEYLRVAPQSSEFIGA
T8 sequence (P00533 with tags, fused parts or gaps DEL746-750/C797S limits assumed): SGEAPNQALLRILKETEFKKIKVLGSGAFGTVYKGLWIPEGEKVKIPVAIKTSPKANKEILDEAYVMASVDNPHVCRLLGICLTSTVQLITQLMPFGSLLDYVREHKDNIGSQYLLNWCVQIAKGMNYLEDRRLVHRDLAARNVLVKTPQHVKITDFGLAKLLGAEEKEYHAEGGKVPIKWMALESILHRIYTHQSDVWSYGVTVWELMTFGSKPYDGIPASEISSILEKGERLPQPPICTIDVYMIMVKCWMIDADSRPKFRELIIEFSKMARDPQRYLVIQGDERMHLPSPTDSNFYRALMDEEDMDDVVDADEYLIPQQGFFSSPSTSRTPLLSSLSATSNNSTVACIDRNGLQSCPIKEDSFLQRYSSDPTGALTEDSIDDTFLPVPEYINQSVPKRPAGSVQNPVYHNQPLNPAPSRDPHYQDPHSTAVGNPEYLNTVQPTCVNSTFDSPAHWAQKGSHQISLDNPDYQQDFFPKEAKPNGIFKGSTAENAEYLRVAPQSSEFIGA
T7 sequence (P00533 with tags, fused parts or gaps DEL746-750/T790M/C797S limits assumed): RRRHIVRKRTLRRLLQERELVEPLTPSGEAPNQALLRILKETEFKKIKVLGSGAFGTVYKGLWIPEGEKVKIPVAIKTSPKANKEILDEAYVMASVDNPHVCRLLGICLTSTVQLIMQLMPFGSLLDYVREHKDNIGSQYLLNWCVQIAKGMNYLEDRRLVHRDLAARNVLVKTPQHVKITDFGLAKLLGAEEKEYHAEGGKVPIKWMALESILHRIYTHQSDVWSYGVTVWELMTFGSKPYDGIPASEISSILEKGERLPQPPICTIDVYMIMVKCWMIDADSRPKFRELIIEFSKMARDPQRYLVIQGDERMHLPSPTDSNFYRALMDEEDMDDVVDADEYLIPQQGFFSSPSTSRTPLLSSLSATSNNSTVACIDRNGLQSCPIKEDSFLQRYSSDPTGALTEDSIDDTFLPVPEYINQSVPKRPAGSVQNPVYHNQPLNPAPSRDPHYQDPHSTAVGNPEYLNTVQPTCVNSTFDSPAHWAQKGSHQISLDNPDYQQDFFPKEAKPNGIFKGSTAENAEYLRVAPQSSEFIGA

Compound: Cc1cc2cc(n1)-c1cnn(C)c1OCCN1CC3CCC(C3)(C1)n1c(nc3ccc(N4CC5CN(C)CC5C4)cc31)NC2=O (single isomer, unassigned) [Example B43A]
- IC50 [1]: > 5000 nM
- IC50 [2]: > 5000 nM
- IC50 [3]: > 5000 nM
- IC50 [4]: > 5000 nM
- IC50 [5]: 1160 nM
- IC50 [6]: > 5000 nM
- IC50 [7]: 200 nM
- IC50 [8]: > 5000 nM
- IC50 [9]: > 5000 nM
- GI50 [10, 12]: 193 nM
- GI50 [10, 13]: 200 nM
- GI50 [10, 14]: 442 nM
- GI50 [10, 15]: 68 nM
- GI50 [10, 16]: 305 nM
- GI50 [10, 17]: 998 nM
- GI50 [10, 18]: 271 nM
- GI50 [11]: 1320 nM

Compound: Cc1cc2cc(n1)-c1cnn(C)c1OCCN1CC3CCC(C3)(C1)n1c(nc3ccc(N4CCC(N5CCOCC5)C4)cc31)NC2=O (single isomer, unassigned) [Example B44A1]
- IC50 [1]: > 5000 nM
- IC50 [2]: > 5000 nM
- IC50 [3]: > 5000 nM
- IC50 [4]: > 5000 nM
- IC50 [5]: > 5000 nM
- IC50 [6]: > 5000 nM
- IC50 [7]: 4530 nM
- IC50 [8]: > 5000 nM
- IC50 [9]: > 5000 nM
- GI50 [10, 12]: 470 nM
- GI50 [10, 13]: 454 nM
- GI50 [10, 14]: 850 nM
- GI50 [10, 15]: 114 nM
- GI50 [10, 16]: 392 nM
- GI50 [10, 17]: 3200 nM
- GI50 [10, 18]: 1210 nM
- GI50 [11]: 2300 nM

Compound: Cc1cc2cc(n1)-c1cnn(C)c1OCCN1CC3CCC(C3)(C1)n1c(nc3ccc(N4CCC(N5CCOCC5)C4)cc31)NC2=O (single isomer, unassigned) [Example B44A2]
- IC50 [1]: > 5000 nM
- IC50 [2]: > 5000 nM
- IC50 [3]: > 5000 nM
- IC50 [4]: > 5000 nM
- IC50 [5]: > 5000 nM
- IC50 [6]: > 5000 nM
- IC50 [7]: > 5000 nM
- IC50 [8]: > 5000 nM
- IC50 [9]: > 5000 nM
- GI50 [10, 12]: 873 nM
- GI50 [10, 13]: 1290 nM
- GI50 [10, 14]: 3820 nM
- GI50 [10, 15]: 343 nM
- GI50 [10, 16]: 1080 nM
- GI50 [10, 17]: 9400 nM
- GI50 [10, 18]: 3760 nM
- GI50 [11]: 3560 nM

Compound: Cc1cc2cc(n1)-c1cnn(C)c1OCCN1CC3CCC(C3)(C1)n1c(nc3ccc(N(C)CCCN(C)C)cc31)NC2=O (single isomer, unassigned) [Example B45A]
- IC50 [1]: > 5000 nM
- IC50 [2]: > 5000 nM
- IC50 [3]: > 5000 nM
- IC50 [4]: > 5000 nM
- IC50 [5]: 3620 nM
- IC50 [6]: > 5000 nM
- IC50 [7]: 1290 nM
- IC50 [8]: > 5000 nM
- IC50 [9]: > 5000 nM
- GI50 [10, 12]: 239 nM
- GI50 [10, 13]: 363 nM
- GI50 [10, 14]: 10000 nM
- GI50 [10, 15]: 48 nM
- GI50 [10, 16]: 10000 nM
- GI50 [10, 17]: 2850 nM
- GI50 [10, 18]: 10000 nM
- GI50 [11]: 2800 nM

Compound: Cc1cc2cc(n1)-c1cnn(C)c1OCCN1CC3CCC(C3)(C1)n1c(nc3ccc(N(C)CCN(C)C)cc31)NC2=O (single isomer, unassigned) [Example B47A]
- IC50 [1]: > 5000 nM
- IC50 [2]: > 5000 nM
- IC50 [3]: > 5000 nM
- IC50 [4]: 4170 nM
- IC50 [5]: 4260 nM
- IC50 [6]: > 5000 nM
- IC50 [7]: 1820 nM
- IC50 [8]: 3460 nM
- IC50 [9]: > 5000 nM
- GI50 [10, 12]: 371 nM
- GI50 [10, 13]: 500 nM
- GI50 [10, 14]: 721 nM
- GI50 [10, 15]: 97 nM
- GI50 [10, 16]: 380 nM
- GI50 [10, 17]: 2990 nM
- GI50 [10, 18]: 417 nM
- GI50 [11]: 2260 nM

Compound: Cc1cc2cc(n1)-c1cnn(C)c1OCCN1CC3CCC(C3)(C1)n1c(nc3ccc(N4CCC(N5CCN(C)CC5)C4)cc31)NC2=O (single isomer, unassigned) [Example B49A]
- IC50 [1]: > 5000 nM
- IC50 [2]: > 5000 nM
- IC50 [3]: > 5000 nM
- IC50 [4]: > 5000 nM
- IC50 [5]: 481 nM
- IC50 [6]: > 5000 nM
- IC50 [7]: 289 nM
- IC50 [8]: > 5000 nM
- IC50 [9]: > 5000 nM
- GI50 [10, 12]: 325 nM
- GI50 [10, 13]: 606 nM
- GI50 [10, 14]: 750 nM
- GI50 [10, 15]: 57 nM
- GI50 [10, 16]: 353 nM
- GI50 [10, 17]: 931 nM
- GI50 [10, 18]: 550 nM
- GI50 [11]: 1480 nM

Compound: Cc1cc2cc(n1)-c1cnn(C)c1OCCN1CC3CCC(C3)(C1)n1c(nc3ccc(N4CCC(N5CCN(C)CC5)C4)cc31)NC2=O (single isomer, unassigned) [Example B49B]
- IC50 [1]: 76 nM
- IC50 [2]: 17 nM
- IC50 [3]: 5.6 nM
- IC50 [4]: 8 nM
- IC50 [5]: 5.8 nM
- IC50 [6]: 2.4 nM
- IC50 [7]: 3.5 nM
- IC50 [8]: 3.8 nM
- IC50 [9]: 8 nM
- GI50 [10, 12]: 2 nM
- GI50 [10, 13]: 2 nM
- GI50 [10, 14]: 3 nM
- GI50 [10, 15]: 2 nM
- GI50 [10, 16]: 2 nM
- GI50 [10, 17]: 2 nM
- GI50 [10, 18]: 2 nM
- GI50 [11]: 6 nM

Compound: Cc1cc2cc(n1)-c1cnn(C)c1OCCN1CC3CCC(C3)(C1)n1c(nc3ccc(N4CCC5(CN(C)C5)C4)cc31)NC2=O (single isomer, unassigned) [Example B50A]
- IC50 [1]: > 5000 nM
- IC50 [2]: > 5000 nM
- IC50 [3]: > 5000 nM
- IC50 [4]: > 5000 nM
- IC50 [5]: 2290 nM
- IC50 [6]: > 5000 nM
- IC50 [7]: 748 nM
- IC50 [8]: > 5000 nM
- IC50 [9]: > 5000 nM
- GI50 [10, 12]: 302 nM
- GI50 [10, 13]: 437 nM
- GI50 [10, 14]: 741 nM
- GI50 [10, 15]: 52 nM
- GI50 [10, 16]: 320 nM
- GI50 [10, 17]: 1280 nM
- GI50 [10, 18]: 377 nM
- GI50 [11]: 1550 nM
